The conditions of series [1]: SCID tumor-bearing mice, i.g. BID × 3 days.
Experimental: During routine examinations, animals were monitored for tumor growth, activity level, food intake, water consumption, weight gain or loss, eye, fur, and any other abnormal behaviors. Animal deaths and clinical abnormalities were recorded.
The test system of the next series is Gli1 Gene. Briefly: Gli1 mRNA expression in tumor tissues (RT-qPCR), Shh signaling pathway analysis. It counts as in vivo, CB-17/SCID mice. Particulars: 10 mg/kg i.g. BID × 3 days; tumor tissue 2 hours after last administration; GAPDH internal reference. From the text: Table 7-1 The Grouping and Drug Administration Plan
Primary tumor cells were extracted from Math1-Cre/Ptch1 ^C/C mice with spontaneous medulloblastoma and subcutaneously inoculated into CB-17/SCID mice to establish a xenograft model of medulloblastoma.
CB-17/SCID mice were subcutaneously injected with primary extracted medulloblastoma cells. After 3-4 weeks, a subset of mice developed tumors with volumes ranging from 150 to 300 mm^3.
From these mice, 25 tumor-bearing mice with uniform tumor sizes (with CV < 30%, CV = SD/Mean) were selected and randomly divided into 5 experimental groups (Vehicle, GDC-0449-10 mg/kg, Compound A-10 mg/kg, Compound A-3 mg/kg, Compound A-1 mg/kg) according to Table 2. Each group consisted of 5 mice per cage. Administration began on the day after grouping. The administration period was 3 days, with a frequency of BID. Tumor tissues were collected 2 hours after the last administration, and the mRNA expression level of the Glil gene in the tumor tissues was analyzed by RT-qPCR.
The tumor tissues were lysed by RNAiso Plius (TaKaRa, 108-95-2) to extractand RNA was then extracted using chloroform extraction and isopropanol precipitation methods. Subsequently, the mRNA level of the Glil gene was detected using a real-time fluorescence quantitative PCR instrument (ABI 7500), with GAPDH serving as the internal reference for quantitative analysis.
Experimental data in all tables are presented as "mean ± standard deviation" with error bars in figures representing standard error of the mean (SEM). Student's t-test was used to compare statistical differences in Glil gene mRNA expression levels in tumor tissues among treatment groups. All data were analyzed using GraphPad Prism 5.0. P-value <0.05 was considered statistically significant. ***, P<0.001; ##, P<0.01.
Glil is a target gene of the Hedgehog signaling pathway, and its mRNA expression level reflects the activation status of the hedgehog signaling pathway.
For orientation: Real-time PCR tracks product formation cycle by cycle.

In series [2] the test system is primary extracted medulloblastoma cells. Put plainly: antitumor efficacy against medulloblastoma, subcutaneous xenograft model.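 Further: male CB-17/SCID mice bearing subcutaneous tumors, randomized at 150-300 mm^3, tumor volume from caliper diameters as 0.5 × longest × shortest squared, measured twice weekly.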 It counts as in vivo, CB-17/SCID mice. To be noted: 10 mg/kg i.g. BID, 17 days.
Experimental: 60 male CB-17/SCID mice (aged 6-8 weeks) were purchased from Shanghai SLAC Laboratory Animal Co., Ltd. Animals were housed in individually ventilated cages (IVCs), with five mice per cage. Housing conditions were as follows: temperature was maintained at 20-26°C; humidity was 30-70%; 12 hours of light and 12 hours of darkness.
(§1) 30 mice with uniform tumor sizes (Coefficient of Variation, CV < 30%, CV = Standard Deviation / Mean) were selected from this group. These mice were selected and randomly divided into five experimental groups according to Table 6-2, with six mice in each group and one group per cage. Drug administration began the day after grouping and lasted for 17 days with a frequency of twice daily (BID). The drug was discontinued after 17 days to observe tumor changes.
(§2) During routine examinations, animals were monitored for tumor growth, activity level, food intake, water consumption, weight gain or loss, eye, fur, and any other abnormal behaviors. Animal deaths and clinical abnormalities were recorded. Tumor volume (TV) was measured twice weekly using calipers and calculated using the formula: TV = 0.5a × b^2, wherein a is the longest diameter of the tumor and b is the shortest diameter. Body weight was recorded twice weekly, concurrently with tumor volume measurements.
(§3) If the animals' weight subsequently recovered to within a 10% loss compared to baseline, whether to continue the administration was based on the animals' condition. The in vivo experimental for an individual animal or the entire group would be terminated under the following conditions. The animals will be euthanized before death or coma. • ➢ If the animals' health condition deteriorated continuously, causing persistent suffering and is unable to eat or drink. • ➢ If the animal became emaciated, with a body weight loss exceeding 20% compared to the initial administration. • ➢ If the tumor volume of an individual mouse exceeded 3000 mm^3 or the mean tumor volume of the entire group exceeded 2000 mm^3.
All data were analyzed using GraphPad Prism 5.0. P value < 0.05 was considered statistically significant.
The nature of a further series: in vivo. Particulars: male, C57, mouse, plasma, po, 10 mg/kg.
A short description of series [3]: body weight of tumor-bearing mice during treatment.
Text: as §1, §2, §3
The nature of series [4]: solid state stability (XRPD, HPLC, chiral purity). The series is classed as physicochemical. As to the method: The purity test, the dynamic solubility and the stability test are tested by the Agilent 1260/1100 high performance liquid chromatograph, and the analysis conditions and chiral purity test analysis conditions of the high performance liquid chromatography test are respectively as follows.
After placing the amorphous free base and fumarate crystal form F of the compound of formula (I) at 25°C/60% RH and 40°C/75% RH for 1 week, the physical and chemical stability of the sample is detected by XRPD and HPLC (at the same time the chiral purity of the sample is tested). […] Table 4-2 Solid Stability Evaluation Summary

The nature of series [5]: hygroscopicity evaluation by dynamic vapor sorption (DVS). The series is classed as physicochemical. As to the method: The DVS curves were collected on a DVS Intrinsic from SMS (Surface Measurement Systems).The relative humidity at 25°C was corrected with the deliquescence points of LiCl, Mg (NO3)2 and KCl.
The conditions of series [6]: rats, P.O., 10 mg/kg; data from WO2018006756A1 (B1); cited from earlier work.
Series [7] is described as follows: dynamic solubility in water and three biological solvents. To be noted: 37 °C, thermodynamic from solid. It counts as physicochemical. The protocol:
Finally, the volume is fixed with purified water.
0.17 g of sodium dihydrogen phosphate (NaH2PO4, anhydrous), 0.021 g of sodium hydroxide and 0.31 g of sodium chloride were weighed into a 50 mL volumetric flask respectively, about 48 mL of purified water was added for dissolution, the pH was adjusted to exactly 6.5 with 1M hydrochloric acid or 1M sodium hydroxide, and the volume was fixed with purified water. 0.11 g of SIF powder was then added, stirred and sonicated to completely dissolve the powder. The solution can be used only after being placed at room temperature for two hours to reach equilibrium.
0.41 mL of glacial acetic acid, 0.20 g of sodium hydroxide and 0.59 g of sodium chloride were weighed into a 50 mL volumetric flask respectively, and about 48 mL of purified water was added for dissolution, the pH was adjusted to exactly 5.0 with 1M hydrochloric acid or 1M sodium hydroxide, and the volume was fixed with purified water. 0.56 g of SIF powder was then added, stirred and sonicated to completely dissolve the powder. The solution can be used only after being placed at room temperature for two hours to reach equilibrium.
The solubility results of the two samples in SGF, FASSIT and FeSSIF are similar. […] Table 4-1 Summary of the dynamic solubility test results

Where [8] appears, read: pH 1.8, simulated gastric fluid.

Experimental for in vivo: The collected plasma samples were subjected to a protein precipitation method by using an organic reagent according to the following method to extract test article in the plasma, and the extracted sample was subjected to quantitative concentration analysis through the LC-MS/MS.
Meanwhile, an accompanying standard curve and quality control samples were prepared for quantitative analysis.
The fumarate salt form F of the compound of formula (I) Group: 50 µL of plasma at each time point was taken, 400 µL of acetonitrile was added, vortex mixing and centrifugation was performed at 10000 rpm for 10 min, and a 200 µL supernatant for LC-MS/MS analysis was taken. Meanwhile, an accompanying standard curve and quality control samples were prepared for quantitative analysis.
According to the plasma drug concentration data obtained through analysis, the main pharmacokinetic parameters were calculated according to the non-atrioventricular model by using Kinetic software (Version 5.0).

`CS(=O)(=O)c1ccc(C(=O)Nc2ccc(Cl)c(-c3ccccn3)c2)c(Cl)c1` [GDC-0449, reference compound]: in [1], the “abnormal behaviors or animal deaths during the administration period” value is reported as “no abnormal behaviors or animal deaths”. Further, in the series on Gli1 Gene, the “mRNA Expression Level of Glil Gene” value was 0.194 ± 0.074. Further, in series [2], the “T/C (%)” value is listed as 32.49%. In addition, the “TGI (%)” value in series [2] (TGI = [1 - RTV(treatment group) / RTV(control group)] × 100%) came out at 67.51%. In “in vivo”, this molecule displayed an AUC(0-inf) of 6650 ng·h/mL, an area under the curve AUC(0-t) of 6040 ng·h/mL, a Cmax of 1270 ng/mL and a mean residence time MRT of 8.33 h. Also, in “in vivo”, the time to peak (Tmax) was 0.63 h and the half-life is 8.43 h. In addition, in [3] (10 mg/kg group, before treatment), the “Mean Body Weight at Day 0” value is listed as 23.7 ± 2.1 g. In addition, in [3] (10 mg/kg i.g. BID, 17 days), the “Body Weight Change Rate (%)” value is listed as 9.3% and the “Mean Body Weight at Dosing Endpoint” value is on record as 25.9 ± 2.0 g. In [3] (administered doses, i.g. BID × 17 days), the “impact on the body weight of tumor-bearing mice during the treatment period” value was “no significant impact”.
As to `Cc1cnc(-c2cc(N3CCc4nc(N5CCC(O)CC5)ncc4[C@H]3C)ncc2Cl)c(C)c1` [compound of formula (I), (R)-1-(6-(5'-chloro-3,5-dimethyl-[2,4'-bipyridin]-2'-yl)-5-methyl-5,6,7,8-tetrahydropyrido[4,3-d]pyrimidin-2-yl)piperidin-4-ol], in series [4] (25°C/60%RH_1w), the “Chiral purity (%)” value is recorded as 98.7%, the “Purity (Area%)” value is on record as 99.0 Area% and the “Purity/Initial purity (%)” value was found to be 100.0%. Also, in series [4] (40°C/75%RH_1w), the “Chiral purity (%)” value came out at 98.7%, the “Purity (Area%)” value is recorded as 98.9 Area% and the “Purity/Initial purity (%)” value amounted to 99.9%. Besides, in series [4] (Start), the “Chiral purity (%)” value amounted to 98.5% and the “Purity (Area%)” value is 99.0 Area%. In addition, in [4] (summary, 25°C/60% RH and 40°C/75% RH for 1 week), the “Solid State Stability” value was “good physical and chemical stability”. The “crystal transformation or crystal form change after the DVS test (XRPD)” value in series [5] (0% RH-95% RH-0% RH, 25°C) is listed as “no crystal transformation or crystal form change”. Moreover, in [5] (25°C/80%RH), the “Water adsorption (25°C/80%RH)” value is recorded as 2.4 and the moisture adsorption amounted to 2.4%. Moreover, in series [6], the F% was 100%. Also, in series [7] (setting [8]), the solubility at 1 h is 4100 µg/mL, the solubility at 2 h was 3900 µg/mL, the solubility at 4 h is 4000 µg/mL and the solubility at 24 h was 3900 µg/mL. In series [7] (pH 5, fessif), this molecule had a solubility at 1 h of 3000 µg/mL, a solubility at 2 h of 3000 µg/mL, a solubility at 4 h of 2900 µg/mL and a solubility at 24 h of 2900 µg/mL. In series [7] (pH 6.5, fassif), this molecule gave a solubility at 1 h of 210 µg/mL, a solubility at 2 h of 200 µg/mL, a solubility at 4 h of 240 µg/mL and a solubility at 24 h of 220 µg/mL. Also, in series [7] (water), the solubility at 1 h was determined as 13 µg/mL, the solubility at 2 h came to 16 µg/mL, the solubility at 4 h stood at 18 µg/mL and the solubility at 24 h stood at 30 µg/mL.

By AUC(0-inf) is commonly meant the area under the concentration-time curve extrapolated to infinity. The low end stands for less exposure, the high end for more exposure. The term AUC(0-t) denotes the area under the concentration-time curve up to a stated or last time point. The low end stands for low exposure, the high end for high exposure. One may read the Cmax as the highest concentration seen after dosing. Usually MRT stands for the average time that molecules of a dose stay in the body. In general, Tmax refers to the time from dosing to the highest level. For orientation: half-life means the time needed for the level to fall by half in the phase considered. A low value points to rapid decline. For orientation: solubility means the concentration that dissolves in the medium under given conditions.

(Values after patent EP4696689A1, “SALT FORM AND CRYSTAL FORM OF CHIRAL HETEROCYCLIC COMPOUND HAVING HEDGEHOG PATHWAY ANTAGONIST ACTIVITY” (Suzhou Kintor Pharmaceuticals, Inc., priority 2023, dated 2024).)
